Data on nine molecules can be found in US8911952B2, “Method for integrin ligand discovery” (STC. UNM, priority 2010, dated 2014).

The target of assay [1] is T1, VLA-4 (Homo sapiens, UniProt P05556+P13612). Briefly: Detection of VLA-4 allosteric antagonists: HUTS-21 binding inhibition screen of the Prestwick Chemical Library.
Method: 5 μl RPMI was added to columns 2-24. Column 1 was left empty for flow cytometry data binning purposes. Test compounds in DMSO (Prestwick Chemical Library, PCL) were added and mixed (0.1 μl of 1 mM stock solution). […] Compounds were added to 320 wells (columns 3-22). […] Columns 23, 24 were used for the positive control (no test compounds added). Next, 5 μl aliquots of U937 cells were suspended in RPMI 1640 at 3×10^6 cells/ml, loaded in 384 well plates, and mixed (1×10^6 cells/ml final). Cells were incubated for 10 min at RT. This time is sufficient for the binding of a small molecule (˜1 kD) at 10 μM at RT. […] Plates were incubated for 1 hour at 37° C. According to the real-time kinetic studies this time was sufficient to reach equilibrium. Next, wells were sampled using the high throughput flow cytometry platform (HyperCyt) at UNMCMD.
After data acquisition by the flow cytometer (CyAn™ ADP), proprietary software was used to analyze the data files (IDLQuery, at UNMCMD, developed by Bruce Edwards). The data were exported into a Microsoft Excel spreadsheet template, and the value for antibody binding inhibition (%) was calculated for each well as follows: % Inhibition=100(1−((MCFtest−MCFneg.control)/MCFpos.control−MCFneg.control))), where, MCF is mean channel fluorescence of cells with test compounds, and positive or negative control wells.
Assay [2] addresses T1, VLA-4. Description: Real-time binding of HUTS-21 antibodies to U937 cells. It is filed as cell-based. More on the design: host or cells: U937 (human histiocytic lymphoma); in part of the real-time experiments U937 stably transfected with a non-desensitizing FPR mutant, where VLA-4 itself is endogenous. The conditions noted are these: 1 nM LDV in the absence of the compound. The method, then:
the Ability of a Flow Cytometer to Discriminate between free and bound fluorescent ligand in a homogeneous assay was used to determine the binding kinetics of mAbs in real-time (15; 26). Cells (10^6 cells/ml) were removed from ice and warmed in HEPES buffer containing 0.1% HSA for 10 min at 37° C. […] Screening hits at saturating concentration (10-30 μM final) or DMSO (vehicle) were added at point 0.

Assay [3] concerns hematopoietic stem and progenitor cells (HSPCs). Briefly: Mobilization of hematopoietic stem and progenitor cells into the peripheral blood. The note with it: mouse; for CFU/ml in peripheral Blood / WBC count/ml × 10^6: intraperitoneal, one hour prior to blood collection, thioridazine hydrochloride 1.25 mg/kg, AMD3100 5 mg/kg, Mean ± S.E.
Assay [4] concerns the target VLA-4 (very late antigen 4, CD49d/CD29, alpha4beta1 integrin) (human) (UniProt P13612). Description: flow cytometry on U937 cells, PE-HUTS-21 with rising LDV. (A flow cytometer gives signals particle by particle.)
Assay [5] concerns the target T1, VLA-4. Description: HUTS-21 antibody binding (ligand induced epitope exposure) on U937 cells. It is filed as cell-based. More on the design: host or cells: U937 (human histiocytic lymphoma); in part of the real-time experiments U937 stably transfected with a non-desensitizing FPR mutant, where VLA-4 itself is endogenous. The method, then: U937 cells were suspended in the HEPES buffer (see above) 1×10^6 cells/ml, 100 μl aliquots (10^5 cells) were incubated with different concentrations of unlabeled compounds for 10 min. Next, 20 μl of PE-labeled HUTS-21 antibodies was added and cells were incubated for additional […] at room temperature. Next, cells were washed with 1 ml of HEPES buffer, resuspended in 300-500 μl of buffer and analyzed by flow cytometry (FL2 channel, BD FACScan). The data were plotted as mean channel fluorescence vs. the concentration of the compound. The data were fitted to a sigmoidal dose-response equation. To determine the level of nonspecific binding, cells were stained in parallel with the isotype control antibodies.

The next assay has as its target T2, LFA-1 (Homo sapiens, UniProt P05107+P20701).
T2 construct: host or cells: U937 (human histiocytic lymphoma)
Briefly: Binding of MEM-148 mAbs to U937 cells (epitope exposure). Type of assay: cell-based. From the text: In order to confirm that similar results can be obtained with other integrins we have constructed a 3D model of αLβ2-integrin (LFA-1, CD11a/CD18). Amino acid residue critical for the binding of MEM-148 mAb to β2-integrin subunit (Pro 374) was highlighted as green space fill (1). This model was compared to the model of β1-integrin subunit, where critical residues (Ser370, Glu371, and Lys417) were highlighted in a similar way (2) (FIG. 8). It is worth noting that critical residues for both mAbs are positioned in a similar way on the inner side of the hybrid domain. Since the outward movement of the hybrid domain, induced by a ligand binding (at least for β1-integrin (2)), can be used to report occupancy of the ligand binding pocket (3), we decided to use MEM-148 mAbs to probe LFA-1 integrin conformation upon ligand binding.
To test this possibility, two αLβ2-integrin ligands were synthesized as described previously. Compound 3 (Genentech) and XVA143 (Roche) are shown to be LFA-1 specific antagonists (4) FIG. 9.

Counter-ions that a name gives are not always drawn. Marks after values point to notes of the source that are not given here.

T1 sequence (P13612 34-1032): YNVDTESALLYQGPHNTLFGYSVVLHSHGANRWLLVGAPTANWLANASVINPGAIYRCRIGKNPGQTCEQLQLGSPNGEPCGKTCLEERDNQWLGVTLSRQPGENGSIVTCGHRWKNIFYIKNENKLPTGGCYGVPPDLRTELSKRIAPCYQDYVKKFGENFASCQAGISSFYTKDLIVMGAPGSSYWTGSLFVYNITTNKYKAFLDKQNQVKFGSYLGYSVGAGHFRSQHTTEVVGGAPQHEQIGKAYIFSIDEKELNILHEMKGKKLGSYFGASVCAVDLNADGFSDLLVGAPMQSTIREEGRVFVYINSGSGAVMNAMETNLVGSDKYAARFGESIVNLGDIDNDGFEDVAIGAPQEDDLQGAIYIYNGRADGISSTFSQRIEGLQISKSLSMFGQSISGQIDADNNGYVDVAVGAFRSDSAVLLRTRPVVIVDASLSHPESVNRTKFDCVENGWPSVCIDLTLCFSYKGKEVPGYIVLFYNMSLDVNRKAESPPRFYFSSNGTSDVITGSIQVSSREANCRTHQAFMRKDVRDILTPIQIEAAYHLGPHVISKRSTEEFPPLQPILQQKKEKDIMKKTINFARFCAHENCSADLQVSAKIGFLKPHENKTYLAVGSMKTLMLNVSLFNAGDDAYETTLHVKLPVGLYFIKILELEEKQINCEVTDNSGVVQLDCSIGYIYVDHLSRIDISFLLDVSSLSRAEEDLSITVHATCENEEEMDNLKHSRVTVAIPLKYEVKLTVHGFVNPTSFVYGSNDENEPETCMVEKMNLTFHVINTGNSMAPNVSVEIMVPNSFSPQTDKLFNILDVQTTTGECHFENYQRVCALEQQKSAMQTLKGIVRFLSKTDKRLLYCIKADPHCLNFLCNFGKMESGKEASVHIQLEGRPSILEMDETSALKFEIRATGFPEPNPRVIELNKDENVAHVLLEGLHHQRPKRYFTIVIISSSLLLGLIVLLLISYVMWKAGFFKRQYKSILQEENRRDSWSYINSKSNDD
T1 sequence (P05556 21-798): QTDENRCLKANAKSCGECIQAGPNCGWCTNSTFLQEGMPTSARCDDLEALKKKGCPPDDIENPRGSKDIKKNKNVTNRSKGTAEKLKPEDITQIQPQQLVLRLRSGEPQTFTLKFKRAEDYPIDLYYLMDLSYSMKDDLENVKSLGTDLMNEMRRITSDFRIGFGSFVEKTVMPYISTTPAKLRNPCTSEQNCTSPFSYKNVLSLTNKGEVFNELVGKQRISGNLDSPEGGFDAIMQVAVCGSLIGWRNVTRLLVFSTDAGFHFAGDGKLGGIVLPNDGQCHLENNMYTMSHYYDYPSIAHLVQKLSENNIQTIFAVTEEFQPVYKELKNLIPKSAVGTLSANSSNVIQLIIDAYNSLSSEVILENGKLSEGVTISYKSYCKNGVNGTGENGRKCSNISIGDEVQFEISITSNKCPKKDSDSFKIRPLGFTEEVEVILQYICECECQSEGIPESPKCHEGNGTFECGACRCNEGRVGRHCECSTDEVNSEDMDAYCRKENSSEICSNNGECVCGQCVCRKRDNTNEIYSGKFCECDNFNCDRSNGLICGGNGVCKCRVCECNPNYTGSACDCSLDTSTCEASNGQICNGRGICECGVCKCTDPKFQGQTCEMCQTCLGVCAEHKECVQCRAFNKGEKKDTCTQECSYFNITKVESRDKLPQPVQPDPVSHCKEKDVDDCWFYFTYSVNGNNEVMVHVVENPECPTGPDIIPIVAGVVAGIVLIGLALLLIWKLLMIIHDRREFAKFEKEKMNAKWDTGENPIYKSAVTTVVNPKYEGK
T2 sequence (P20701 26-1170): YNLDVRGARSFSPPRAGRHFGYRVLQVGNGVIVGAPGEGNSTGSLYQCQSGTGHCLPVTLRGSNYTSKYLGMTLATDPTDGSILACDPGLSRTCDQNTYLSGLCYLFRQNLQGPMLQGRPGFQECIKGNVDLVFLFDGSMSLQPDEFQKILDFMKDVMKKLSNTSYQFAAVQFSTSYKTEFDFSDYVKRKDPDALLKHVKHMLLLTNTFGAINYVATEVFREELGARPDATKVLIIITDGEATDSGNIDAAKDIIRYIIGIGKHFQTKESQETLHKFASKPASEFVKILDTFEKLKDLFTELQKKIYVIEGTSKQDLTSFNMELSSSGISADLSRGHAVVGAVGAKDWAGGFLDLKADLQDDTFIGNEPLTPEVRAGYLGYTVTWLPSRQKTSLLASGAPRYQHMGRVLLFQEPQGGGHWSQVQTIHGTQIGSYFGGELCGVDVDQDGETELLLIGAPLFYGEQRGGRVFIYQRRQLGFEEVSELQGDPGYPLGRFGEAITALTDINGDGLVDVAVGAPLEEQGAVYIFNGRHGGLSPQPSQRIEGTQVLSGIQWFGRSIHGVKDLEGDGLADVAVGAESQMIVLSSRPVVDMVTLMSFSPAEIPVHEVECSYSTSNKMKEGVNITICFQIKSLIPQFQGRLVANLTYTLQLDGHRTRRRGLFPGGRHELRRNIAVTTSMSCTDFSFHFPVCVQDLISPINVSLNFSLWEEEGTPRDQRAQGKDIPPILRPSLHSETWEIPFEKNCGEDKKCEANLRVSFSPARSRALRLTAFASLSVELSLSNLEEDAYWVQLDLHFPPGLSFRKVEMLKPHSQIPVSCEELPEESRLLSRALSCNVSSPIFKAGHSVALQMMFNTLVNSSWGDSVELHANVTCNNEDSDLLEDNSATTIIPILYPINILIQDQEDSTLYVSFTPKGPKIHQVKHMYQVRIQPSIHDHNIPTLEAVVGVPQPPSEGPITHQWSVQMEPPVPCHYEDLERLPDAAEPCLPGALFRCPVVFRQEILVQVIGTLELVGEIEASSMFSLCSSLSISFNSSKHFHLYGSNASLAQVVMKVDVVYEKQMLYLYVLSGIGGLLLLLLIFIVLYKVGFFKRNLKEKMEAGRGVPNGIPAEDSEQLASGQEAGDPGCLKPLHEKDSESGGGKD
T2 sequence (P05107 23-769): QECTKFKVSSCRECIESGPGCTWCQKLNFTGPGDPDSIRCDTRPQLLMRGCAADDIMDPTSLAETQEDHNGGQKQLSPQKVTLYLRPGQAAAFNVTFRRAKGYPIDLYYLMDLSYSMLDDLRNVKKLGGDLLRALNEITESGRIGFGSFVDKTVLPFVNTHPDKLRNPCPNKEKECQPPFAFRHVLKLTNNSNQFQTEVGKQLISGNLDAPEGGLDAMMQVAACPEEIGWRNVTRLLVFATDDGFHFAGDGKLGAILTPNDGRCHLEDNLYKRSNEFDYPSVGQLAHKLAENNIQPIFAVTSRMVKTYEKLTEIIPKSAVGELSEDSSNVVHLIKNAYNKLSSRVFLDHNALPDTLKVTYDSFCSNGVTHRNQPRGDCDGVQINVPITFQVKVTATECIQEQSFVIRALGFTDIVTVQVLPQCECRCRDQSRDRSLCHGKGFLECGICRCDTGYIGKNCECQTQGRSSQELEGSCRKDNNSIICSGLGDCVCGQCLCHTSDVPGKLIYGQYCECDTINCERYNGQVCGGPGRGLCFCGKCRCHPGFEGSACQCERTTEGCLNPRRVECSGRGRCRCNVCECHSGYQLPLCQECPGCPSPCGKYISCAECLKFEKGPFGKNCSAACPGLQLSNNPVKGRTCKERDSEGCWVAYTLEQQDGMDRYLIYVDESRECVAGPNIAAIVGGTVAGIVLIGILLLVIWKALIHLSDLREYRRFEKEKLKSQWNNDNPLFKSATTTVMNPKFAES
Sequence of VLA-4 (very late antigen 4, CD49d/CD29, alpha4beta1 integrin) (human) (P13612 34-1032, chain 1 of 2): as the sequence (P13612 34-1032) above
Sequence of VLA-4 (very late antigen 4, CD49d/CD29, alpha4beta1 integrin) (human) (P05556 21-798, chain 2 of 2, further chain): as the sequence (P05556 21-798) above

As to `O=C(CCCN1CCC(O)(c2ccc(Cl)cc2)CC1)c1ccc(F)cc1` [haloperidol], the “antagonistic activity in the HUTS-21 based screen” value (“antagonistic activity” below) on VLA-4 [1] is “did not show any antagonistic activity”.

Turning to `CCN1CCCC1CNC(=O)c1cc(S(N)(=O)=O)ccc1OC` (stereo not drawn) [sulpiride], the “antagonistic activity” value on VLA-4 [1] is listed as “did not show any antagonistic activity”.

On to `OCCN1CCN(CCCN2c3ccccc3Sc3ccc(Cl)cc32)CC1` [perphenazine], for which the “LDV concentration required to induce HUTS-21 binding in the presence of the compound” value on VLA-4 [2] amounted to 0.1 µM.

In the case of `CCN(CC)CCNC(=O)c1cc(Cl)c(N)cc1OC` [metoclopramide], the “antagonistic activity” value on VLA-4 [1] was “did not show any antagonistic activity”.

On to `CSc1ccc2c(c1)N(CCC1CCCCN1C)c1ccccc1S2` (stereo not drawn) [Thioridazine, Thioridazine hydrochloride], for which, in assay [3], the “CFU/ml in peripheral Blood” value worked out at 216.8 ± 42.1 CFU/ml and the “WBC count/ml × 10^6” value was found to be 3.0 ± 0.3 count/ml × 10^6.

“Mouse anti-human CD29, HUTS-21 (PE) (antibody)”: the signal to background ratio in assay [4] amounted to 10.

Regarding `COc1cccc(OC)c1-c1ccc(C[C@H](NC(=O)c2c(Cl)cccc2Cl)C(=O)O)cc1` [TR14035, N-(2,6-dichlorobenzoyl)-(L)-4-(2′,6′-bis-methoxyphenyl)phenylalanine], on VLA-4 [5], the “LIBS (HUTS-21 epitope) exposure” value was “resulted in the LIBS exposure”.

In the case of `c1cc(CN2CCCNCCNCCCNCC2)ccc1CN1CCCNCCNCCCNCC1` [AMD3100, AMD3100 octahydrochloride], the WBC count increase in assay [3] (AMD3100 5 mg/kg intraperitoneal, versus vehicle) was roughly 2.1 fold. In assay [3], the “CFU/ml in peripheral Blood” value is recorded as 511.8 ± 78.8^a CFU/ml and the “WBC count/ml × 10^6” value is 7.8 ± 0.7^b count/ml × 10^6.

Take `O=C(NCc1cccc(O)c1)c1cc(Cl)c(C(=O)N[C@@H](CNC(=O)c2cc(O)cc(O)c2)C(=O)O)c(Cl)c1` [XVA143]: the “exposure of MEM-148 epitope” value on LFA-1 is listed as “induced exposure of MEM-148 epitope”.
